± gives the standard deviation.
How the values were obtained:
[1] = chemical recovery from spiked human plasma; higher = better extraction; conditions: pooled human plasma
[2] = chemical recovery into PDMS from spiked human plasma; higher = better extraction; conditions: pooled human plasma, extraction method: PES with PDMS
[3] = chemical recovery by SPE of plasma after PDMS sampling; higher = better extraction; conditions: pooled human plasma, extraction method: HLB SPE of plasma after PES
[4] = extraction method: SPE only (HLB 96-well), PES comparison experiment
[5] = extraction method: solvent precipitation (ACN + hexane)
[6] = extraction method: PES+SPE (3 d PDMS equilibration then HLB SPE)
[7] = extraction method: SPE only (HLB 96-well)
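For chemical recovery by SPE of plasma after PDMS sampling in this document: over 400 spiked chemicals quantified by LC-HRMS or GC-HRMS via internal standard calibration, recovery relative to spike mix added to unspiked plasma extract to correct matrix effects.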

Row | SMILES | chemical recovery [1, 4] [%] | chemical recovery into PDMS ([2]; equilibration time (d): 1) [%] | chemical recovery into PDMS ([2]; equilibration time (d): 3) [%] | chemical recovery into PDMS ([2]; equilibration time (d): 6) [%] | chemical recovery by SPE of plasma ([3]; equilibration time (d): 1) [%] | chemical recovery by SPE of plasma ([3]; equilibration time (d): 3) [%] | chemical recovery by SPE of plasma ([3]; equilibration time (d): 6) [%] | chemical recovery [1, 5] [%] | chemical recovery [1, 6] [%] | chemical recovery [1, 7] [%]
1 | CCCN(CCOc1c(Cl)cc(Cl)cc1Cl)C(=O)NC=O | 43.4 ± 6.2 | 39.6 ± 3.2 | 42.2 ± 4.2 | 43.2 ± 2.2 | 3.65 ± 3.2 | 2.44 ± 2.1 | 0.703 ± 1.2 | – | – | –
2 | C#C[C@]1(OC(C)=O)CC[C@H]2[C@@H]3CCC4=CC(=NO)CC[C@@H]4[C@H]3CC[C@@]21CC (mixture of isomers) [Norgestimate] | 24.5 ± 5.8 | 15.9 ± 6.2 | 9.35 ± 5.2 | 13.5 ± 8.6 | 1.42 ± 1.2 | – | – | – | – | –
3 | Fc1ccc([C@]2(Cn3cncn3)O[C@H]2c2ccccc2Cl)cc1 (racemic) [Epoxiconazole] | 47.4 ± 6.8 | 43.7 ± 1.7 | 48.1 ± 4.1 | 46.5 ± 5.9 | 0.968 ± 0.044 | 0.628 ± 0.21 | 0.285 ± 0.018 | 73.6 ± 3 | – | –
4 | CC(=O)N1CCN(c2ccc(OC[C@H]3CO[C@](Cn4ccnc4)(c4ccc(Cl)cc4Cl)O3)cc2)CC1 (racemic) [Ketoconazole] | 39.6 ± 10 | 0.0493 ± 0.043 | 0.0293 ± 0.027 | 0.0825 ± 0.0051 | 17.2 ± 0.9 | 12.8 ± 1.7 | 10.5 ± 1.8 | – | 7.76 ± 0.64 | 42.6 ± 2.9
5 | CN1CCN(C)C1=O [1,3-Dimethyl-2-imidazolidinone] | 13.6 ± 8.1 | 3.18 ± 2.2 | 2.57 ± 3 | 3.27 ± 3.2 | 4.06 ± 4.7 | 4.29 ± 3.7 | 8.78 ± 4.2 | – | – | 7.04 ± 5.9
6 | Nc1cccc2ccccc12 [1-Naphthylamine] | 22 ± 3 | – | 0.33 ± 0.13 | 0.338 ± 0.048 | 11.2 ± 0.88 | 12.3 ± 2.6 | 6.22 ± 5.4 | – | 4.07 ± 2.1 | 16.7 ± 8.8
7 | c1ccc(-c2cccc3ccccc23)cc1 [1-Phenylnaphthalene] | 17.3 ± 3 | 70.3 ± 20 | 70.6 ± 5.2 | 78.1 ± 11 | – | 2.49 ± 2.2 | – | – | 45.1 ± 7.6 | 12.2 ± 3
8 | c1ccc2[nH]nnc2c1 [1H-Benzotriazole] | 53.9 ± 5.8 | 4.24 ± 0.36 | 6.44 ± 1 | 7.25 ± 1.5 | 47.4 ± 3.6 | 46.6 ± 3.2 | 39.9 ± 2.1 | 62.5 ± 4.5 | 51.7 ± 3.9 | 48.2 ± 2.7
9 | c1ccc2sc(N3CCOCC3)nc2c1 [2(4-morpholinyl)benzothiazole] | 40.1 ± 5.6 | 27.1 ± 0.46 | 29.2 ± 2.2 | 30.7 ± 0.94 | 1.2 ± 0.1 | 1.41 ± 0.23 | 0.805 ± 0.046 | 67.9 ± 3.3 | 41.7 ± 6.4 | 39.6 ± 2.1
10 | CC1(C)CC(=O)CC(C)(C)N1 [2,2,6,6-Tetramethyl-4 piperidone] | – | 0.707 ± 0.49 | 1.17 ± 0.15 | 0.677 ± 0.17 | 2.44 ± 4 | – | 1.13 ± 0.92 | – | – | –
11 | O=C(O)c1ccc(Cl)cc1Cl [2,4-Dichlorobenzoic acid] | 57 ± 6.3 | 0.268 ± 0.04 | 0.296 ± 0.12 | 0.344 ± 0.065 | 47.5 ± 9.1 | 46.9 ± 8.3 | 47 ± 2.5 | 67 ± 4.5 | – | 47.3 ± 5.1
12 | O=Cc1ccccc1Nc1ccccc1Cl [2-(2-(Chlorophenyl)amino)benzaldehyde] | 23.9 ± 4.7 | 36.6 ± 1.5 | 40.9 ± 4 | 43.5 ± 3.3 | 0.712 ± 0.79 | 0.276 ± 0.48 | – | – | – | –
13 | Nc1ccc2c(n1)[nH]c1ccccc12 [2-Amino-9H-pyrido[2,3-b]indole (AalphaC)] | 45.3 ± 7.1 | 3 ± 0.11 | 3.49 ± 1.2 | 5.65 ± 2.5 | 19.66 ± 0.18 | 14.4 ± 1.5 | 9.97 ± 0.52 | 70.8 ± 5.4 | 17 ± 2.6 | 28.5 ± 2.1
14 | Nc1ccccc1Br [2-Bromoaniline] | – | 6.56 ± 0.99 | 9.84 ± 3 | 5.91 ± 1.3 | 0.45 ± 0.78 | 1.14 ± 0.62 | 0.431 ± 0.75 | – | – | –
15 | Clc1ccc2ccccc2c1 [2-Chloronaphthalene] | 0.564 ± 0.39 | 10.2 ± 1.7 | – | – | 3.42 ± 3 | – | – | – | – | 0.106 ± 0.18
16 | O=c1[nH]c2ccccc2s1 [2-Hydroxybenzothiazole] | 58.8 ± 4.3 | 9.18 ± 0.11 | 11.1 ± 0.48 | 8.95 ± 1.5 | 36.2 ± 6 | 37.7 ± 2.4 | 30.3 ± 2.5 | 71.6 ± 5.8 | 63.5 ± 7 | 49.6 ± 2.7
17 | NC(=O)N1c2ccccc2C=Cc2cc(O)ccc21 [2-Hydroxycarbamazepine] | 51.6 ± 4.5 | 0.215 ± 0.2 | 0.668 ± 0.2 | 0.788 ± 0.13 | 57.7 ± 11 | 55.6 ± 6.7 | 51.7 ± 11 | 68.2 ± 1.6 | 48.1 ± 3.7 | 44.7 ± 3.9
18 | O=c1ccc2ccccc2[nH]1 [2-Hydroxyquinoline] | 52.9 ± 8.4 | 10.9 ± 0.65 | 15.6 ± 2 | 17.1 ± 2.4 | 36.8 ± 5.3 | 30.9 ± 3.2 | 24 ± 2.1 | 78.2 ± 3.6 | 57.1 ± 5.5 | 43 ± 3.2
19 | Cc1nc2ccccc2s1 [2-Methylbenzothiazole] | 0.912 ± 0.53 | 8.73 ± 6 | – | 5.9 ± 0.22 | 0.0827 ± 0.14 | 0.253 ± 0.11 | 0.0669 ± 0.12 | – | – | 0.149 ± 0.18
20 | CCCCCCCCn1sccc1=O [2-Octyl-4-isothiazolin-3-one] | 21.6 ± 2.9 | 33.3 ± 1.9 | 35.5 ± 1.5 | 36.3 ± 1.2 | 1.24 ± 0.64 | 1.03 ± 0.27 | 0.459 ± 0.03 | 40.8 ± 4.6 | – | 29.4 ± 2.2
21 | Nc1ccc(-c2ccc(N)c(Cl)c2)cc1Cl [3,3'-Dichlorobenzidine] | 24.4 ± 3.6 | 3.87 ± 0.23 | 3.04 ± 0.4 | 3.28 ± 0.46 | 16.1 ± 5.5 | 17.3 ± 2 | 14.6 ± 2.8 | 72 ± 6.2 | 39.1 ± 7.4 | 54.8 ± 17
